Assay [1] relates to genetically defected sperm versus healthy sperm. As to conditions: potassium concentration in the extra-cellular fluid in the same range for all salts.
Another assay concerns H/H sperm. Put plainly: Sperm motility after about 24 hours in potassium-fortified sperm extender, computer-assisted semen analyzer. In kind it is cell-based, horse. On the procedure: (§1) Three curves are plotted—one for motility of N/N sperm, one for N/H sperm and one for H/H sperm. […] In the tests, the sperm was kept in the particular sperm extender formula for about 24 hours. It was then diluted with standard sperm extender (with the low potassium concentration) at about an 8-to-1 ratio in a bullet tube, and its motility was measured using a computer-assisted semen analyzer. Note that the bold lines on the graph are linear extrapolations between the actual data points, which are shown in squares, triangles and diamonds, and are not accurate representations of the actual values between those data points.
As shown in the bottom-most curve in FIG. 6, as the potassium concentration increases, the motility of the H/H sperm sample drops to zero somewhere prior to 50 times the standard potassium concentration. Because all sperm in the H/H sample contain the defective sperm, we conclude that all defective sperm are immobilized at this concentration. More importantly, the sperm are permanently immobilized, as the test measured motility after the sperm sample was re-extended, restoring metabolic potassium levels.

A further assay relates to N/N sperm. The description is as above. In kind it is cell-based, horse. The following applies: for motility of the N/N sperm sample: about 24 hours, then re-extended about 8-to-1. As for the experimental part: as §1
Another assay deals with N/H sperm. The description is as above. In kind it is cell-based, horse. On the procedure: as §1
Where [2] appears, read: 100 times the normal potassium concentration.
The mark [3] stands for this setting: 70 times the normal potassium concentration, extrapolated from the curve.

For the compound `[Cl-].[K+]` [potassium chloride], the “suitable triggering event that impaired genetically defected sperm without also impairing healthy sperm” value in assay [1] is “yielded a suitable triggering event”. Besides, the “impairment of defective cells” value in the assay with H/H sperm (setting [2]) is “completely and permanently impaired”. In addition, the “microscopic examination of the morphology of the sperm cells” value in the assay on H/H sperm (H/H sperm after high potassium exposure) is on record as “tails were permanently curled around the cell body”. In addition, in the assay on H/H sperm (somewhere prior to 50 times the standard potassium concentration, about 24 hours, then re-extended about 8-to-1), the “motility of the H/H sperm sample” value is “zero”. For the same compound, the “motility of the N/N sperm sample” value in the assay on N/N sperm (50 times standard potassium concentration) is “about 85%”; in the assay on N/N sperm (setting [2]) it was 29%. Also, in the assay with N/N sperm (setting [3]), the “motility rate for N/N sperm cells” value is given as roughly 60%. Moreover, the “motility percentage of N/H sperm cell sample” value in the assay with N/H sperm (50 times the normal potassium concentration, about 24 hours, then re-extended about 8-to-1) is “about 53%”. The “motility rate for N/H sperm cells” value with N/H sperm (setting [3]) is on record as roughly 38%.

For the compound “potassium phosphate [reference compound]”, the “suitable triggering event that impaired genetically defected sperm without also impairing healthy sperm” value in assay [1] is “failed to produce such a suitable outcome”.
